25 compounds from patent US20230140290A1, “SALICYLAMIDE DERIVATIVES AND RELATED METHODS OF MAKING” (THE BOARD OF REGENTS OF THE UNIVERSITY OF TEXAS SY, priority 2020, published 2023) can be followed below.

The test system of one series is A549 cells. Description: Cytotoxicity assay (AlamarBlue). The note with it: read-out: CC50 (μM), cytotoxic concentration 50%; A549 cell line, 48 h. On the procedure: Cytotoxicity Assay. The cytotoxicity of the compounds was analyzed by commercial kit AlamarBlue® (Invitrogen, Ref. DAL1025). A549 cells at a density of 5×10^3 cells per well in 96-well plates were seeded. […] Cells were then incubated at 37° C. for 48 h following the kit protocol. The cytotoxic concentration 50 (CC50) value was obtained using the statistical package GraphPad Prism. This assay was performed in duplicate.
Background: Resazurin is reduced to fluorescent resorufin, in cell work by metabolically active cells.

The next series relates to HAdV5-GFP. In words: Plaque assay (inhibition of HAdV plaque formation). The series is classed as cell-based, HAdV-5. The note with it: for Selectivity index (SI): ratio of CC50 to IC50 in plaque assay; for inhibition at 10 µM: read-out: Plaque Assay (%) Inhibition (10 μM). On the procedure: Plaque Assay. […] When cells reached 80-90% confluency, they were infected with HAdV5-GFP (0.06 vp/cell) and rocked for 2 h at 37° C. After the incubation the inoculum was removed, and the cells were washed once with PBS.
Plaque Assay. Compounds were tested using low MOI infections (0.06 vp/cell) and at concentrations of 10 μM and in a dose-response assay ranging from 10 to 0.3 μM in a plaque assay. […] When cells reached 80-90% confluency, they were infected with HAdV5-GFP (0.06 vp/cell) and rocked for 2 h at 37° C. After the incubation the inoculum was removed, and the cells were washed once with PBS. […] The mixture also contained the compounds in concentrations ranging from 10 to 0.3 μM.

Where [1] appears, read: read-out: Plaque Assay IC50 (μM), HAdV5-GFP, low MOI, 293β5 cell line.

Read-outs that look alike come from different tables or passages of the source.

As for `CC(C)(C)OC(=O)CC[C@H](NC(=O)c1cc(Cl)ccc1O)C(=O)Nc1ccc([N+](=O)[O-])cc1Cl` [Compound 64, (S)-tert-Butyl 4-(5-chloro-2-hydroxybenzamido)-5-((2-chloro-4-nitrophenyl)amino)-5-oxopentanoate], the CC50 in the series with A549 cells turned out to be 22.9 µM. In the series on HAdV5-GFP, the “Selectivity index (SI)” value is 34.2 and the inhibition at 10 µM turned out to be 97.3 ± 0.3%. For the same compound, the half-inhibitory concentration (IC50) in the series with HAdV5-GFP (setting [1]) is 0.67 µM.
In the same order, the values of `O=C(Nc1ccc(NC2CCCC2)cc1F)c1cc(Cl)ccc1O` [Compound 142, 5-Chloro-N-(4-(cyclopentylamino)-2-fluorophenyl)-2-hydroxybenzamide] are 51 ± 13.3 µM, 49.1, 98.7 ± 0.4% and 1.04 µM.
Taken in the same sequence, the figures for `COc1ccc(CNc2ccc(NC(=O)c3cc(Cl)ccc3O)c(Cl)c2)cc1` [Compound 100, 5-Chloro-N-(2-chloro-4-((4-methoxybenzyl)amino)phenyl)-2-hydroxybenzamide] were 80.7 ± 8.2 µM, 22.4, 100% and 3.61 ± 0.4 µM.
In the same order, the values of `O=C(Nc1ccc(NC2CCCC2)cc1)c1cc(Cl)ccc1O` [Compound 141, 5-Chloro-N-(4-(cyclopentylamino)phenyl)-2-hydroxybenzamide] are 10 ± 2.2 µM, 3.9, 99.8 ± 0.3% and 2.6 µM.
As to `CC(C)CNc1ccc(NC(=O)c2cc(Cl)ccc2O)c(Cl)c1` [Compound 82, 5-Chloro-N-(2-chloro-4-(isobutylamino)phenyl)-2-hydroxybenzamide], in the series with A549 cells, the CC50 turned out to be 60 ± 15 µM. Moreover, in the series on HAdV5-GFP, the “Selectivity index (SI)” value came out at 67.4 and the inhibition at 10 µM came to 100%. For the same compound, the IC50 with HAdV5-GFP (setting [1]) came out at 0.89 µM.
Taken in the same sequence, the figures for `O=C(Nc1ccc(F)c(F)c1)c1cc(Cl)ccc1O` [Compound 15, 5-Chloro-N-(3,4-difluorophenyl)-2-hydroxybenzamide] were 8 µM, 29.6, 100% and 0.27 µM.
For `Cc1ccc(CNC(=O)c2cc(Cl)ccc2O)cc1` [Compound 44, 5-Chloro-2-hydroxy-N-(4-methylbenzyl)benzamide], in the series with A549 cells, the CC50 was found to be 87.7 ± 4.7 µM. In addition, in the series on HAdV5-GFP, the “Selectivity index (SI)” value came out at 10.8 and the inhibition at 10 µM turned out to be 96.6 ± 4%. For the same compound, the IC50 in the series on HAdV5-GFP (setting [1]) stood at 8.12 ± 2.16 µM.
Taken in the same sequence, the figures for `CC1(ON(c2ccc(NC(=O)c3cc(Cl)ccc3O)c(Cl)c2)C2(C)CCCC2)CCCC1` [Compound 93, 5-Chloro-N-(2-chloro-4-((1-methylcyclopentyl)((1-methylcyclopentyl)oxy)amino)phenyl)-2-hydroxybenzamide] were 18 µM, 24.3, 100% and 0.74 µM.
In the same order, the values of `CCN(CC)c1ccc(NC(=O)c2cc(Cl)ccc2O)c(Cl)c1` [Compound 90, 5-Chloro-N-(2-chloro-4-(diethylamino)phenyl)-2-hydroxybenzamide] are 55.5 ± 10.2 µM, 64.5, 100% and 0.86 ± 0.19 µM.
On to `O=C(Nc1cc(C(F)(F)F)cc(C(F)(F)F)c1)c1cc(Cl)ccc1O` [Compound 16, N-(3,5-Bis(trifluoromethyl)phenyl)-5-chloro-2-hydroxybenzamide], for which the CC50 in the series with A549 cells was 4.1 µM. Besides, in the series on HAdV5-GFP, the “Selectivity index (SI)” value is given as 68.3 and the inhibition at 10 µM was 100%. Also, in the series on HAdV5-GFP (setting [1]), the 50% inhibitory concentration (IC50) was found to be 0.06 µM.
With `C[C@@H](NC(=O)c1cc(Cl)ccc1O)c1ccccc1` [Compound 46, (R)-5-Chloro-2-hydroxy-N-(1-phenylethyl)benzamide], the CC50 in the series on A549 cells is 84.6 ± 20.5 µM. For the same compound, the inhibition at 10 µM in the series with HAdV5-GFP stood at 100%.
As for `O=C(Nc1ccc(NCc2cc(C(F)(F)F)cc(C(F)(F)F)c2)cc1Cl)c1cc(Cl)ccc1O` [Compound 107, N-(4-((3,5-Bis(trifluoromethyl)benzyl)amino)-2-chlorophenyl)-5-chloro-2-hydroxybenzamide], the CC50 in the series on A549 cells is 92.8 µM. In addition, in the series on HAdV5-GFP, the “Selectivity index (SI)” value was found to be 82.9 and the inhibition at 10 µM was determined as 100%. For the same compound, the 50% inhibitory concentration (IC50) in the series on HAdV5-GFP (setting [1]) worked out at 1.12 ± 0.49 µM.
In the case of `C[C@@H](NC(=O)c1cc(Cl)ccc1O)c1ccc(Cl)cc1` [Compound 48, (R)-5-Chloro-N-(1-(4-chlorophenyl)ethyl)-2-hydroxybenzamide], in the series with A549 cells, the CC50 is 31.1 ± 3.2 µM. For the same compound, the inhibition at 10 µM with HAdV5-GFP worked out at 100%.
In the case of `O=C(Nc1ccc(NCc2ccc(Cl)cc2)cc1Cl)c1cc(Cl)ccc1O` [Compound 96, 5-Chloro-N-(2-chloro-4-((4-chlorobenzyl)amino)phenyl)-2-hydroxybenzamide], in the series on A549 cells, the CC50 turned out to be 59.7 ± 0.3 µM. Further, in the series with HAdV5-GFP, the “Selectivity index (SI)” value was found to be 49.7 and the inhibition at 10 µM worked out at 100%. Besides, the IC50 in the series on HAdV5-GFP (setting [1]) turned out to be 1.2 ± 0.01 µM.
In the same order, the values of `O=C(Nc1ccc(NCc2cccc(C(F)(F)F)c2)cc1Cl)c1cc(Cl)ccc1O` [Compound 99, 5-Chloro-N-(2-chloro-4-((3-(trifluoromethyl)benzyl)amino)phenyl)-2-hydroxybenzamide] are 13.3 ± 6.9 µM, 15.2, 100% and 0.88 ± 0.4 µM.
In the same order, the values of `CS(=O)(=O)Nc1ccc(Cl)cc1C(=O)Nc1ccc(NC2CCCC2)cc1Cl` [Compound 140, 5-Chloro-N-(2-chloro-4-(cyclopentylamino)phenyl)-2-(methylsulfonamido)benzamide] are 35.4 ± 2.7 µM, 20.6, 99.8 ± 0.4% and 1.72 µM.
In the case of `CN(C)c1ccc(NC(=O)c2cc(Cl)ccc2O)c(Cl)c1` [Compound 89, 5-Chloro-N-(2-chloro-4-(dimethylamino)phenyl)-2-hydroxybenzamide], the CC50 with A549 cells is 85.1 ± 11.9 µM. Further, in the series with HAdV5-GFP, the “Selectivity index (SI)” value turned out to be 44.3 and the inhibition at 10 µM came to 100%. In addition, the half-maximal inhibitory concentration (IC50) in the series on HAdV5-GFP (setting [1]) is 1.92 ± 0.23 µM.
Taken in the same sequence, the figures for `CCCNc1ccc(NC(=O)c2cc(Cl)ccc2O)c(Cl)c1` [Compound 80, 5-Chloro-N-(2-chloro-4-(propylamino)phenyl)-2-hydroxybenzamide] were 22.5 ± 10.6 µM, 4.5, 100% and 5.04 µM.
Taken in the same sequence, the figures for `O=C(CNC(=O)c1cc(Cl)ccc1O)Nc1ccc([N+](=O)[O-])cc1Cl` [Compound 56, 5-Chloro-N-(2-((2-chloro-4-nitrophenyl)amino)-2-oxoethyl)-2-hydroxybenzamide] were 129 µM, 53.2, 100% and 2.43 µM.
For the compound `O=C(Nc1ccc(N(CCCO)CCCO)cc1Cl)c1cc(Cl)ccc1O` [Compound 121, N-(4-(Bis(3-hydroxypropyl)amino)-2-chlorophenyl)-5-chloro-2-hydroxybenzamide], the CC50 in the series with A549 cells came to 114 ± 9.2 µM. Also, in the series on HAdV5-GFP, the inhibition at 10 µM is 35 ± 7.1%. Moreover, in the series on HAdV5-GFP ({}), the “Plaque Assay (%) Inhibition (10 μM)” value was “inactive”.
On to `O=C(Nc1ccc(NCc2ccc3cn[nH]c3c2)cc1Cl)c1cc(Cl)ccc1O` [Compound 114, N-(4-(((1H-Indazol-6-yl)methyl)amino)-2-chlorophenyl)-5-chloro-2-hydroxybenzamide], for which, in the series on A549 cells, the CC50 stood at 45.3 ± 0.4 µM. Besides, in the series on HAdV5-GFP, the “Selectivity index (SI)” value turned out to be 9.7 and the inhibition at 10 µM is 98 ± 0.7%. Further, the IC50 with HAdV5-GFP (setting [1]) worked out at 4.65 µM.
In the same order, the values of `O=C(NCc1ccc(F)cc1Cl)c1cc(Cl)ccc1O` [Compound 31, 5-Chloro-N-(2-chloro-4-fluorobenzyl)-2-hydroxybenzamide] are 30.9 ± 10.2 µM, 12.1, 97.1 ± 4.1% and 2.56 ± 0.06 µM.
Regarding `O=C(Nc1ccc(NC2CCCC2)c(Cl)c1)c1cc(Cl)ccc1O` [Compound 143, 5-Chloro-N-(3-chloro-4-(cyclopentylamino)phenyl)-2-hydroxybenzamide], in the series with A549 cells, the CC50 stood at 16.9 ± 0.1 µM. Besides, in the series on HAdV5-GFP, the “Selectivity index (SI)” value is reported as 20.1 and the inhibition at 10 µM came out at 100%. Besides, the IC50 in the series on HAdV5-GFP (setting [1]) stood at 0.84 µM. In the series with HAdV5-GFP (read-out: Plaque Assay IC50, HAdV5-GFP, low MOI, 293β5 cell line), the IC50 was determined as 1.34 µM.
On to `C[C@H](NC(=O)c1cc(Cl)ccc1O)C(=O)Nc1ccc([N+](=O)[O-])cc1Cl` [Compound 57, (S)-5-Chloro-N-(1-((2-chloro-4-nitrophenyl)amino)-1-oxopropan-2-yl)-2-hydroxybenzamide], for which the CC50 in the series on A549 cells is 100 µM. Further, in the series with HAdV5-GFP, the “Selectivity index (SI)” value was 26.0 and the inhibition at 10 µM was determined as 97.4 ± 2.7%. In the series with HAdV5-GFP (setting [1]), the IC50 was 3.85 µM.
As to `O=C(Nc1ccc(NCc2cc(Cl)cc(C(F)(F)F)c2)cc1Cl)c1cc(Cl)ccc1O` [Compound 105, 5-Chloro-N-(2-chloro-4-((3-chloro-5-(trifluoromethyl)benzyl)amino)phenyl)-2-hydroxybenzamide], the CC50 with A549 cells was found to be 30.9 ± 0.8 µM. In addition, in the series with HAdV5-GFP, the “Selectivity index (SI)” value is on record as 17.3 and the inhibition at 10 µM is 99.3 ± 1%. In the series with HAdV5-GFP (setting [1]), the IC50 is 1.79 ± 0.16 µM.

In general, inhibition refers to the change of the read-out against control, counted positive when it falls. Usually IC50 stands for the concentration at which inhibition is half-maximal.
